One data set concerns B16 tumors. Nature of the data set: DC vaccination of mice bearing ectopic B16 melanoma tumors. The class given is in vivo, C57BL/6 mice. As to the method:
The B16 melanoma, which is both aggressive and poorly immunogenic, expresses tyrosinase related protein-2 (Trp-2) of which peptide, […] (SEQ ID NO:13), is recognized by CD8^+ T cells in the context of H-2K^b. B16 represents a much more difficult tumor to treat than TRAMP and is considered the “gold standard” for ectopic tumor models in the C57BL/6 background. BMDCs were prepared as described above, pulsed with the Trp-2 and then transduced with either Ad5-SHP-1 shRNA or the control Ad5-scrambled-shRNA virus at 40,000 viral particles/cell. 6-8 week C57BL/6 mice, bearing B16 tumors (5×10^5 cells injected s.c. on the dorsal flank three days prior to vaccination), were given a single i.p. vaccination with 2×10^6 treated DCs or left untreated. Tumors were measured every 2-4 days until termination of the experiment and tumor volume was calculated as described above. […] To determine if this difference was statistically significant, ANOVA and Tukey-Kramer HSD multiple comparisons test were performed.
BMDCs were prepared as described above, pulsed with the Trp-2 and then transduced with either Ad5-SHP-1 shRNA or the control Ad5-scrambled-shRNA virus at 40,000 viral particles/cell. […] Tumors were measured every 2-4 days until termination of the experiment and tumor volume was calculated as described above. […]

Data set [1] relates to BMDCs. Nature of the data set: In vitro transwell DC migration to CCL21. The class given is cell-based, C57BL/6 mice. Conditions: BMDCs transduced 48 hours, 100 ng/mL CCL21, 3 hours transwell. The procedure:
(§1) Primary bone marrow-derived dendritic cells (BMDCs) were prepared from wild type mice in the following manner: Bone marrow cells were flushed from the femurs and tibias of C57BL/6 mice and cultured for 6 days in RPMI media supplemented with 10% FBS, 10 ng/mL IL-4 and 10 ng/mL GMCSF along with antibiotics. On day 6, dendritic cells (DCs) were either purified by magnetic bead assisted cell sorting (MACS; Miltenyi Biotec, Auburn, Calif.) prior to adenoviral transduction, or used as unpurified bulk DCs that were then transduced with adenovirus.
For DCs to initiate an immune response, they must capture antigen in the periphery and then migrate to the lymph nodes where they stimulate antigen specific T cells. To determine if SHP-1 signaling could affected the ability of DCs to migrate to draining lymph nodes, trafficking studies were performed both in vitro and in vivo. For the in vitro DC migration assays, unpurified bulk BMDCs were transduced with either Ad5-SHP1-shRNA or Ad5-scrambled-shRNA for 48 hours or left untreated. Half of the untreated cells were treated with 1 μg/mL LPS for 24 hours. Cells were collected and washed in serum-free media (SFM) and resuspended at 5×10^6 cells/mL. […] BMDCs migrating into the lower chamber were counted using a hematocytometer.

For data set [2], the system named is BMDCs. Nature of the data set: DC survival by annexin V and propidium iodide flow cytometry. Particulars: CD11c purified BMDCs. The class given is cell-based, C57BL/6 mice. As to the method: as §1
BMDCs were prepared as described above and purified by CD11c (a marker for DC) MACS. Purified DCs were transduced with either Ad5-SHP1-shRNA or Ad5-scrambled-shRNA or left untreated and the virus was washed away following a two hour exposure. Cell survival was determined at 24 hours, 48 hours and 72 hours after infection by annexin V and propidium iodide (PI) staining and analyzed by flow cytometry. Annexin V binds to phosphatidylserine and is an early marker of apoptosis. PI is a DNA intercalating dye that can only enter cells when their membrane is integrity is disrupted and is a marker of cells late in the apoptotic process. Viral infection of DCs causes cells to undergo apoptosis where approximately 50% were dead or dying within the first 24 hours and 85% were dead or dying by 72 hours post-infection (FIG. 8 Ad5-scrambled-shRNA). […]

The subject of data set [3] is BMDCs. Nature of the data set: In vivo DC migration out of the footpad, luciferase IVIS imaging. More on the design: species or system albino C57BL/6 mice. Conditions: 2×10^6 transduced BMDCs injected into footpad. The procedure:
To determine if SHP-1 inhibition enhanced DC migration in vivo, BMDCs were prepared as described above but were transduced with an adenovirus expressing a clickbeetle red-shifted luciferase in addition to either Ad5-SHP-1-shRNA or Ad5-scrambled-shRNA. Transduced cells (2×10^6) were injected into the contralateral footpads of tyrosinase-deficient albino C57BL/6 mice (B6(Cg)-Tyr^c-2J/J, Jackson Laboratory). At the specified intervals mice were injected i.p. with 100 μl of 10 mg/mL luciferin and imaged in vivo using IVIS® (Caliper Life Sciences, Hopkinton, Mass.).

The test system of a further data set is Akt. Nature of the data set: LPS stimulated Akt signaling in BMDCs, western blot. Conditions: CD11c positive BMDCs. The format is cell-based, C57BL/6 mice. The procedure: DC survival has been linked with activation of Akt/protein kinase B (PKB) family proteins, major effectors of phosphatidylinositol 3-kinase (PI3K) family members. LPS stimulated Akt signaling BMDCs was examined to determine if SHP-1 mediated survival might be working through this mechanism. MACS sorted for CD11c positive BMDCs were infected with either Ad5-SHP-1-shRNA or Ad5-scrambled-shRNA or left untreated. Cells (10^7) per group were treated with 1 μg/mL LPS for the times indicated or left untreated. Lysates were analyzed by western blot for phosphorylated Akt. […] This observation provides a mechanism for the increased survival seen when SHP-1 signaling was inhibited, in certain embodiments (FIG. 8). LPS stimulation also appears to enhance the total level of SHP-1 protein in DCs as shown by the SHP-1 blot for cells treated with Ad5-scrambled-shRNA.

In the case of “CACCGGAGCATGACACAGCAGAATACGAATATTCTGCTGTGTCATGCTCC (chemistry not given here) [Ad5-SHP-1-shRNA]”, the “B16 mean tumor volume (growth curves)” value with B16 tumors (Trp-2 pulsed DCs, 40,000 viral particles/cell, single i.p. 2×10^6 DCs, beginning at day 18) is given as “markedly smaller mean tumor volumes”. The “B16 mean tumor volume (ANOVA)” value in the data set with B16 tumors (Trp-2 pulsed DCs, compared with either control group) is “significantly lower mean tumor volume”. For the same sequence, the “migration index (migration to CCL21 relative to migration without CCL21)” value in the data set with BMDCs [1] was “not significantly different from that of untreated cells”. Further, the “cells dead or dying” value in the data set on BMDCs [2] (by 72 hours post-infection) worked out at 55%; in the data set on BMDCs [2] (within the first 24 hours post-infection), 35%. Further, in the data set with BMDCs [3], the “DCs in the footpad at 24 hours post-injection” value is on record as “undetectable in the footpad by 24 hours post injection”. Also, in the data set on BMDCs [3] (post-injection), the “time by which DCs are seen to migrate out of the footpad” value is at most 2 h. Besides, the “steady state expression of total Akt protein” value in the data set on Akt is “enhanced the steady state expression of total Akt protein”. Further, in the data set with Akt (1 μg/mL LPS), the “LPS mediated Akt phosphorylation” value is on record as “enhanced LPS mediated Akt phosphorylation”.

Source of the values: patent publication US20090123501A1, “INHIBITION OF THE SH2-DOMAIN CONTAINING PROTEIN TYR-PHOSPHATASE, SHP-1, TO ENHANCE VACCINES” (Baylor College of Medicine, priority 2007, published 2009).
